This is an account of results in US11034685B2, “Aminopyridine derivatives as TAM family kinase inhibitors” (SignalChem Lifesciences Corporation, priority 2013, dated 2021).

Type in all cases: biochemical
For assay [1], the target named is T1, Recombinant human Tyro3 (455-end) (Homo sapiens, UniProt Q06418).
T1 construct: GST (N); made in house; host or cells: Sf9 insect cells (baculovirus)
T1 sequence (Q06418 455-890 limits assumed): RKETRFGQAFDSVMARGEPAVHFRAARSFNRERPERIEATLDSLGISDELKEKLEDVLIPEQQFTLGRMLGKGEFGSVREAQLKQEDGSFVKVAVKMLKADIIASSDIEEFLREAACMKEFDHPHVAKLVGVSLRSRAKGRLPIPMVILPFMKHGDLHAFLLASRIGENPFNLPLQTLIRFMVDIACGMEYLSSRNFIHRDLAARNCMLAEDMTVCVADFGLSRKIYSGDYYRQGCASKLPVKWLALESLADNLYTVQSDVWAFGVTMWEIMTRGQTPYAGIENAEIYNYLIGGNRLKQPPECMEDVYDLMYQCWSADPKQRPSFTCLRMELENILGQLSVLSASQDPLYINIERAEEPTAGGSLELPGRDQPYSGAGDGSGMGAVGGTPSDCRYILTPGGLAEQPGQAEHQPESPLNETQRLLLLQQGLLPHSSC
Briefly: Kinase enzymatic activity assay ([33P]-ATP phosphate transfer), Tyro3. To be noted: inhibitory activity on Tyro3; class symbols. In short, it runs like this: (§1)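 Kinases were N-terminal GST-tagged constructs expressed in Sf9 cells, with poly(Glu:Tyr 4:1) as substrate. Reactions ran in MOPS buffer pH 7.2 with MgCl2 and [33P]-ATP (250 μM cocktail stock) for 30 min at room temperature. Filter-bound radioactivity gave % inhibition, and IC50 was taken from serial dilutions.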

In assay [2] the target is T2, human Axl (473-end) (Homo sapiens, UniProt P30530).
T2 construct: GST (N); made in house; host or cells: Sf9 insect cells (baculovirus)
T2 sequence (P30530 473-894 limits assumed): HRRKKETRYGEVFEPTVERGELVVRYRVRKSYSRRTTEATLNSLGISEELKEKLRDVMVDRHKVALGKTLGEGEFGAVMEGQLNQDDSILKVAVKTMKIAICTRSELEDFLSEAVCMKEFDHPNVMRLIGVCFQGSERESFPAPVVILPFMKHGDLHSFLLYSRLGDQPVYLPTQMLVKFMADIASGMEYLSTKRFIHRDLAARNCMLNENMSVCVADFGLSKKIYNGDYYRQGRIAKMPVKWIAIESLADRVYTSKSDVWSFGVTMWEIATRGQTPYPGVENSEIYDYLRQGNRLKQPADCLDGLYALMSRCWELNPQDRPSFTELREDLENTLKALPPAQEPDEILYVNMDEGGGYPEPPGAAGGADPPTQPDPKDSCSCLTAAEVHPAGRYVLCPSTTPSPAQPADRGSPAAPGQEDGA
The assay is described as follows: Kinase enzymatic activity assay ([33P]-ATP phosphate transfer), Axl. To be noted: inhibitory activity on Axl; class symbols. The gist of the method:
as §1

Assay [3] has as its target T3, human Mer (578-872) (Homo sapiens, UniProt Q12866).
T3 construct: GST (N); made in house; host or cells: Sf9 insect cells (baculovirus)
T3 sequence (Q12866 578-872): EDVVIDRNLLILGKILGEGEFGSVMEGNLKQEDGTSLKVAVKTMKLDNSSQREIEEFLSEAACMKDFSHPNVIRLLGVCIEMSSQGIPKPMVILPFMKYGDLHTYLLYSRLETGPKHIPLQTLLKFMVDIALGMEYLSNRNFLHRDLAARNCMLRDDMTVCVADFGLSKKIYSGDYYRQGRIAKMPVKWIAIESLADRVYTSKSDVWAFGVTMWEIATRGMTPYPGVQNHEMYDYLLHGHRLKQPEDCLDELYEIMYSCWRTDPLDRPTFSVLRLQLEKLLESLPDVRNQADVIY
The assay is described as follows: Kinase enzymatic activity assay ([33P]-ATP phosphate transfer), Mer. Particulars: inhibitory activity on Mer; class symbols. The gist of the method: as §1

Take `CN1CCC(n2cc(-c3cnc(N)c(-c4nc(-c5ccccc5)no4)c3)cn2)CC1` [5-(1-(1-methylpiperidin-4-yl)-1H-pyrazol-4-yl)-3-(3-phenyl-1,2,4-oxadiazol-5-yl)pyridin-2-amine]: the IC50 in assay [1], in assay [2] and in assay [3] was under 500 nM in each case.
For the molecule `Nc1ncc(-c2cn[nH]c2)cc1-c1nnc(-c2ccccc2)o1` [3-(5-phenyl-1,3,4-oxadiazol-2-yl)-5-(1H-pyrazol-4-yl)pyridin-2-amine], the values for the IC50 in assay [1], in assay [2] and in assay [3] were under 500 nM, under 500 nM and 500 to 1000 nM, respectively.
In the case of `Nc1ncc(-c2cnn(C3CCOCC3)c2)cc1-c1nc(-c2c(Cl)cccc2Cl)no1` [3-(3-(2,6-dichlorophenyl)-1,2,4-oxadiazol-5-yl)-5-(1-(tetrahydro-2H-pyran-4-yl)-1H-pyrazol-4-yl)pyridin-2-amine], the IC50 (in general, the concentration that inhibits the measured activity by half) in assay [1] was under 500 nM; in assay [2], 1000 to 10000 nM; in assay [3], 1000 to 10000 nM.
Regarding `Nc1ncc(-c2cnn(C3CCN(C(=O)c4ccc(F)cc4)CC3)c2)cc1-c1ncc(-c2cccc(Cl)c2)o1` [(4-(4-(6-amino-5-(5-(3-chlorophenyl)oxazol-2-yl)pyridin-3-yl)-1H-pyrazol-1-yl)piperidin-1-yl)(4-fluorophenyl)methanone], the IC50 in assay [1] is under 500 nM; in assay [2], under 500 nM; in assay [3] it was 1000 to 10000 nM.
As to `CCN1CCC(n2cc(-c3cnc(N)c(-c4nc(-c5ccccc5)no4)c3)cn2)CC1` [5-(1-(1-ethylpiperidin-4-yl)-1H-pyrazol-4-yl)-3-(3-phenyl-1,2,4-oxadiazol-5-yl)pyridin-2-amine], the IC50 in assay [1], in assay [2] and in assay [3] was under 500 nM throughout.
Consider `CC(=O)N1CCC(n2cc(-c3cnc(N)c(-c4nc(-c5ccccc5)no4)c3)cn2)CC1` [1-(4-(4-(6-amino-5-(3-phenyl-1,2,4-oxadiazol-5-yl)pyridin-3-yl)-1H-pyrazol-1-yl)piperidin-1-yl)ethanone], for which the IC50 in assay [1], in assay [2] and in assay [3] was under 500 nM in each case.
Consider `Nc1ncc(-c2cnn(C3CCN(C(=O)Cc4ccccc4)CC3)c2)cc1-c1ncc(-c2cccc(Cl)c2)o1` [1-(4-(4-(6-amino-5-(5-(3-chlorophenyl)oxazol-2-yl)pyridin-3-yl)-1H-pyrazol-1-yl)piperidin-1-yl)-2-phenylethanone], for which the results for the IC50 in assay [1], in assay [2] and in assay [3] were under 500 nM, under 500 nM and 1000 to 10000 nM, respectively.
With `Nc1ncc(-c2cnn(C3CCOCC3)c2)cc1-c1noc(-c2ccccc2)n1` [3-(5-phenyl-1,2,4-oxadiazol-3-yl)-5-(1-(tetrahydro-2H-pyran-4-yl)-1H-pyrazol-4-yl)pyridin-2-amine], the IC50 in assay [1] was 500 to 1000 nM; in assay [2] it was under 500 nM; in assay [3] it was 1000 to 10000 nM.
With `CC(=O)N1CCC(n2cc(-c3cnc(N)c(-c4nnc(-c5c(Cl)cccc5Cl)o4)c3)cn2)CC1` [1-(4-(4-(6-amino-5-(5-(2,6-dichlorophenyl)-1,3,4-oxadiazol-2-yl)pyridin-3-yl)-1H-pyrazol-1-yl)piperidin-1-yl)ethanone], the 50% inhibitory concentration (IC50) in assay [1], in assay [2] and in assay [3] was under 500 nM throughout.
For the molecule `CC(C)(C)OC(=O)N1CCC(n2cc(-c3cnc(N)c(-c4nnc(-c5ccc(C(C)(C)C)cc5)o4)c3)cn2)CC1`, the values for the IC50 in assay [1], in assay [2] and in assay [3] were 1000 to 10000 nM, 500 to 1000 nM and under 500 nM, respectively.
Take `Nc1ncc(-c2cnn(C3CCCCC3)c2)cc1-c1cc(-c2ccccc2)on1` [5-(1-cyclohexyl-1H-pyrazol-4-yl)-3-(5-phenylisoxazol-3-yl)pyridin-2-amine]: the IC50 in assay [1], in assay [2] and in assay [3] was 1000 to 10000 nM in each case.
For the molecule `Nc1ncc(-c2cnn(C3CCNCC3)c2)cc1-c1nnc(Cc2ccccc2)o1` [3-(5-benzyl-1,3,4-oxadiazol-2-yl)-5-(1-(piperidin-4-yl)-1H-pyrazol-4-yl)pyridin-2-amine], the IC50 in assay [1], in assay [2] and in assay [3] was under 500 nM throughout.
For `Nc1ncc(-c2cnn(C3CCNCC3)c2)cc1-c1nc(-c2ccccc2)no1` [3-(3-phenyl-1,2,4-oxadiazol-5-yl)-5-(1-(piperidin-4-yl)-1H-pyrazol-4-yl)pyridin-2-amine], the IC50 in assay [1], in assay [2] and in assay [3] was under 500 nM each time.
Regarding `CC(C)(C)OC(=O)N1CCC(n2cc(-c3cnc(N)c(-c4nnc(-c5cccnc5)o4)c3)cn2)CC1` [tert-butyl 4-(4-(6-amino-5-(5-(pyridin-3-yl)-1,3,4-oxadiazol-2-yl)pyridin-3-yl)-1H-pyrazol-1-yl)piperidine-1-carboxylate], the IC50 was in the range of 1000 to 10000 nM in assay [1], 500 to 1000 nM in assay [2] and 1000 to 10000 nM in assay [3].
`Nc1ncc(-c2cnn(C3CCNCC3)c2)cc1-c1nnc(-c2cccnc2)o1` [5-(1-(piperidin-4-yl)-1H-pyrazol-4-yl)-3-(5-(pyridin-3-yl)-1,3,4-oxadiazol-2-yl)pyridin-2-amine]: the IC50 in assay [1], in assay [2] and in assay [3] was under 500 nM in each case.
As for `CN1CCC(n2cc(-c3cnc(N)c(-c4ncc(-c5cccc(Cl)c5)o4)c3)cn2)CC1` [3-(5-(3-chlorophenyl)oxazol-2-yl)-5-(1-(1-methylpiperidin-4-yl)-1H-pyrazol-4-yl)pyridin-2-amine], the half-maximal inhibitory concentration (IC50) in assay [1], in assay [2] and in assay [3] was under 500 nM throughout.
On to `Nc1ncc(-c2cnn(C3CCCCC3)c2)cc1-c1ncc(-c2ccc(Cl)cc2)o1` [3-(5-(4-chlorophenyl)oxazol-2-yl)-5-(1-cyclohexyl-1H-pyrazol-4-yl)pyridin-2-amine], for which the IC50 in assay [1], in assay [2] and in assay [3] was over 10000 nM throughout.
Turning to `CCCCCCCCCCCCN1CCC(n2cc(-c3cnc(N)c(-c4nc(-c5c(Cl)cccc5Cl)no4)c3)cn2)CC1` [3-(3-(2,6-dichlorophenyl)-1,2,4-oxadiazol-5-yl)-5-(1-(1-dodecylpiperidin-4-yl)-1H-pyrazol-4-yl)pyridin-2-amine], the values for the 50% inhibitory concentration (IC50) in assay [1], in assay [2] and in assay [3] were under 500 nM, 1000 to 10000 nM and under 500 nM, respectively.
For `Nc1ncc(-c2cnn(C3CCCCC3)c2)cc1-c1noc(-c2ccccc2)n1` [5-(1-cyclohexyl-1H-pyrazol-4-yl)-3-(5-phenyl-1,2,4-oxadiazol-3-yl)pyridin-2-amine], the IC50 in assay [1], in assay [2] and in assay [3] was over 10000 nM each time.
For `Nc1ncc(-c2cnn(C3CCNCC3)c2)cc1-c1nc(-c2c(Cl)cccc2Cl)no1` [3-(3-(2,6-dichlorophenyl)-1,2,4-oxadiazol-5-yl)-5-(1-(piperidin-4-yl)-1H-pyrazol-4-yl)pyridin-2-amine], the IC50 in assay [1], in assay [2] and in assay [3] was under 500 nM each time.
On to `Nc1ncc(-c2cnn(C3CCNCC3)c2)cc1-c1ncc(-c2ccc(Cl)cc2)o1` [3-(5-(4-chlorophenyl)oxazol-2-yl)-5-(1-(piperidin-4-yl)-1H-pyrazol-4-yl)pyridin-2-amine], for which the IC50 in assay [1], in assay [2] and in assay [3] was under 500 nM throughout.
